Patent US20230372301A1, “TREATMENTS WITH NIROGACESTAT” (SpringWorks Therapeutics, Inc., priority 2022, published 2023)
Counter-ions that a name gives are not always drawn. Like-named read-outs stand apart in the source and are kept apart here.

What was measured:
[1] = Pharmacokinetics of single oral doses of nirogacestat dihydrobromide; format: in vivo, human; settings: for AUC(0-inf) / AUC(0-t) / Cmax / half-life / Tmax / Vd/F: human, in vivo, po
[2] = Pharmacokinetics of 150 mg nirogacestat dihydrobromide twice daily at steady state exposure; format: in vivo, human; settings: 150 mg (free base equivalent dose) twice daily, oral
Procedure: The pharmacokinetic parameters for oral doses of 150 mg (free base equivalent dose) nirogacestat dihydrobromide twice daily at steady state exposure is provided in Table 2E below.

[3] = COHORT 1: 150 mg (1 × 150 mg), Period 2
[4] = COHORT 1: 150 mg (3 × 50 mg), Period 1
[5] = human, in vivo, steady state exposure

Question: With `CCC[C@H](N[C@H]1CCc2cc(F)cc(F)c2C1)C(=O)Nc1cn(C(C)(C)CNCC(C)(C)C)cn1` [nirogacestat dihydrobromide] as the compound, how does the “CL/F, Geometric Mean” value [1, 3] read?
Answer: 49.7 L/h

Question: What about the “CL/F, Median” value [1, 3] of the same compound?
Answer: 48.4 L/h

Question: What about the “CL/F, Geometric Mean” value [1, 4] of the same compound?
Answer: 49.2 L/h

Question: And the “CL/F, Median” value [1, 4]?
Answer: 57.0 L/h

Question: What about the “CL/F, Geometric Mean” value ([1]; COHORT 2: 100 mg, Period 1) of the same compound?
Answer: 56.1 L/h

Question: And the “CL/F, Median” value ([1]; COHORT 2: 100 mg, Period 1)?
Answer: 58.4 L/h

Question: And the “CL/F, Geometric Mean” value ([1]; COHORT 3: 50 mg, Period 1)?
Answer: 87.6 L/h

Question: And the “CL/F, Median” value ([1]; COHORT 3: 50 mg, Period 1)?
Answer: 74.9 L/h

Question: And the AUC(0-inf) ([1]; 50 mg, COHORT 3: 50 mg, Period 1, read-out: AUCinf, Geometric Mean)?
Answer: 571 ng·h/mL

Question: What about the AUC(0-inf) ([1]; 50 mg, COHORT 3: 50 mg, Period 1, read-out: AUCinf, Median) of the same compound?
Answer: 674 ng·h/mL

Question: What about the AUC(0-t) ([1]; 50 mg, COHORT 3: 50 mg, Period 1, read-out: AUClast, Geometric Mean) of the same compound?
Answer: 545 ng·h/mL

Question: And the AUC(0-t) ([1]; 50 mg, COHORT 3: 50 mg, Period 1, read-out: AUClast, Median)?
Answer: 653 ng·h/mL

Question: What about the Cmax ([1]; 50 mg, COHORT 3: 50 mg, Period 1, read-out: Cmax, Geometric Mean) of the same compound?
Answer: 183 ng/mL

Question: What about the Cmax ([1]; 50 mg, COHORT 3: 50 mg, Period 1, read-out: Cmax, Median) of the same compound?
Answer: 209 ng/mL

Question: What about the half-life ([1]; 50 mg, COHORT 3: 50 mg, Period 1, read-out: Half-life, Geometric Mean (converted)) of the same compound?
Answer: 19.3 h

Question: What about the half-life ([1]; 50 mg, COHORT 3: 50 mg, Period 1, read-out: Half-life, Median (converted)) of the same compound?
Answer: 23.3 h

Question: What about the Tmax ([1]; 50 mg, COHORT 3: 50 mg, Period 1, read-out: Tmax, Geometric Mean) of the same compound?
Answer: 0.829 h

Question: What about the Tmax ([1]; 50 mg, COHORT 3: 50 mg, Period 1, read-out: Tmax, Median) of the same compound?
Answer: 1 h

Question: What about the Vd/F ([1]; 50 mg, COHORT 3: 50 mg, Period 1, read-out: Vz/F, Geometric Mean) of the same compound?
Answer: 2440 L

Question: And the Vd/F ([1]; 50 mg, COHORT 3: 50 mg, Period 1, read-out: Vz/F, Median)?
Answer: 2730 L

Question: And the AUC(0-inf) ([1]; 100 mg, COHORT 2: 100 mg, Period 1, read-out: AUCinf, Geometric Mean)?
Answer: 1780 ng·h/mL

Question: And the AUC(0-inf) ([1]; 100 mg, COHORT 2: 100 mg, Period 1, read-out: AUCinf, Median)?
Answer: 1710 ng·h/mL

Question: What about the AUC(0-t) ([1]; 100 mg, COHORT 2: 100 mg, Period 1, read-out: AUClast, Geometric Mean) of the same compound?
Answer: 1720 ng·h/mL

Question: And the AUC(0-t) ([1]; 100 mg, COHORT 2: 100 mg, Period 1, read-out: AUClast, Median)?
Answer: 1660 ng·h/mL

Question: And the Cmax ([1]; 100 mg, COHORT 2: 100 mg, Period 1, read-out: Cmax, Geometric Mean)?
Answer: 435 ng/mL

Question: What about the Cmax ([1]; 100 mg, COHORT 2: 100 mg, Period 1, read-out: Cmax, Median) of the same compound?
Answer: 433 ng/mL

Question: What about the half-life ([1]; 100 mg, COHORT 2: 100 mg, Period 1, read-out: Half-life, Geometric Mean (converted)) of the same compound?
Answer: 25.2 h

Question: What about the half-life ([1]; 100 mg, COHORT 2: 100 mg, Period 1, read-out: Half-life, Median (converted)) of the same compound?
Answer: 24.4 h

Question: What about the Tmax ([1]; 100 mg, COHORT 2: 100 mg, Period 1, read-out: Tmax, Geometric Mean) of the same compound?
Answer: 1.19 h

Question: What about the Tmax ([1]; 100 mg, COHORT 2: 100 mg, Period 1, read-out: Tmax, Median) of the same compound?
Answer: 1.28 h

Question: What about the Vd/F ([1]; 100 mg, COHORT 2: 100 mg, Period 1, read-out: Vz/F, Geometric Mean) of the same compound?
Answer: 2040 L

Question: What about the Vd/F ([1]; 100 mg, COHORT 2: 100 mg, Period 1, read-out: Vz/F, Median) of the same compound?
Answer: 2040 L

Question: And the AUC(0-inf) ([1]; 150 mg, COHORT 1: 150 mg (1 × 150 mg), Period 2, read-out: AUCinf, Geometric Mean)?
Answer: 3020 ng·h/mL

Question: And the AUC(0-inf) ([1]; 150 mg, COHORT 1: 150 mg (1 × 150 mg), Period 2, read-out: AUCinf, Median)?
Answer: 3100 ng·h/mL

Question: What about the AUC(0-t) ([1]; 150 mg, COHORT 1: 150 mg (1 × 150 mg), Period 2, read-out: AUClast, Geometric Mean) of the same compound?
Answer: 2930 ng·h/mL

Question: And the AUC(0-t) ([1]; 150 mg, COHORT 1: 150 mg (1 × 150 mg), Period 2, read-out: AUClast, Median)?
Answer: 3040 ng·h/mL

Question: And the Cmax ([1]; 150 mg, COHORT 1: 150 mg (1 × 150 mg), Period 2, read-out: Cmax, Geometric Mean)?
Answer: 686 ng/mL

Question: And the Cmax ([1]; 150 mg, COHORT 1: 150 mg (1 × 150 mg), Period 2, read-out: Cmax, Median)?
Answer: 662 ng/mL

Question: What about the half-life ([1]; 150 mg, COHORT 1: 150 mg (1 × 150 mg), Period 2, read-out: Half-life, Geometric Mean (converted)) of the same compound?
Answer: 24.7 h

Question: What about the half-life ([1]; 150 mg, COHORT 1: 150 mg (1 × 150 mg), Period 2, read-out: Half-life, Median (converted)) of the same compound?
Answer: 26.3 h

Question: What about the Tmax ([1]; 150 mg, COHORT 1: 150 mg (1 × 150 mg), Period 2, read-out: Tmax, Geometric Mean) of the same compound?
Answer: 1.2 h

Question: And the Tmax ([1]; 150 mg, COHORT 1: 150 mg (1 × 150 mg), Period 2, read-out: Tmax, Median)?
Answer: 1.5 h

Question: What about the Vd/F ([1]; 150 mg, COHORT 1: 150 mg (1 × 150 mg), Period 2, read-out: Vz/F, Geometric Mean) of the same compound?
Answer: 1770 L

Question: What about the Vd/F ([1]; 150 mg, COHORT 1: 150 mg (1 × 150 mg), Period 2, read-out: Vz/F, Median) of the same compound?
Answer: 1720 L

Question: What about the AUC(0-inf) ([1]; 150 mg, COHORT 1: 150 mg (3 × 50 mg), Period 1, read-out: AUCinf, Geometric Mean) of the same compound?
Answer: 3050 ng·h/mL

Question: And the AUC(0-inf) ([1]; 150 mg, COHORT 1: 150 mg (3 × 50 mg), Period 1, read-out: AUCinf, Median)?
Answer: 2640 ng·h/mL

Question: And the AUC(0-t) ([1]; 150 mg, COHORT 1: 150 mg (3 × 50 mg), Period 1, read-out: AUClast, Geometric Mean)?
Answer: 2960 ng·h/mL

Question: And the AUC(0-t) ([1]; 150 mg, COHORT 1: 150 mg (3 × 50 mg), Period 1, read-out: AUClast, Median)?
Answer: 2580 ng·h/mL

Question: What about the Cmax ([1]; 150 mg, COHORT 1: 150 mg (3 × 50 mg), Period 1, read-out: Cmax, Geometric Mean) of the same compound?
Answer: 733 ng/mL

Question: And the Cmax ([1]; 150 mg, COHORT 1: 150 mg (3 × 50 mg), Period 1, read-out: Cmax, Median)?
Answer: 697 ng/mL

Question: What about the half-life ([1]; 150 mg, COHORT 1: 150 mg (3 × 50 mg), Period 1, read-out: Half-life, Geometric Mean (converted)) of the same compound?
Answer: 25 h

Question: What about the half-life ([1]; 150 mg, COHORT 1: 150 mg (3 × 50 mg), Period 1, read-out: Half-life, Median (converted)) of the same compound?
Answer: 26.3 h

Question: What about the Tmax ([1]; 150 mg, COHORT 1: 150 mg (3 × 50 mg), Period 1, read-out: Tmax, Geometric Mean) of the same compound?
Answer: 1.34 h

Question: What about the Tmax ([1]; 150 mg, COHORT 1: 150 mg (3 × 50 mg), Period 1, read-out: Tmax, Median) of the same compound?
Answer: 1.49 h

Question: What about the Vd/F ([1]; 150 mg, COHORT 1: 150 mg (3 × 50 mg), Period 1, read-out: Vz/F, Geometric Mean) of the same compound?
Answer: 1770 L

Question: What about the Vd/F ([1]; 150 mg, COHORT 1: 150 mg (3 × 50 mg), Period 1, read-out: Vz/F, Median) of the same compound?
Answer: 1830 L

Question: And the Time to steady-state [2]?
Answer: Approximately 8 days

Question: What about the AUC [2, 5] of the same compound?
Answer: 6430 ng·h/mL

Question: What about the Cmax [2, 5] of the same compound?
Answer: 1250 ng/mL
